{
  "source": "the NIST ThermoML archive (doi:10.1016/j.jct.2016.04.023)",
  "assay": "Boiling temperature at pressure P",
  "settings": "Liquid, DSC",
  "note": "± gives the expanded uncertainty stated by the source.",
  "data": [
    {"smiles": "CCCC(=O)OCC(COC(=O)CCC)OC(=O)CCC", "note": "[1,2,3-propanetriyl tributanoate]", "values": [
      {"measurement": "Boiling temperature at pressure P", "setting": "3.47 kPa", "result": "201.40 ± 1.9", "unit": "°C"}
    ]},
    {"smiles": "OCC(O)CO", "note": "[glycerol]", "values": [
      {"measurement": "Boiling temperature at pressure P", "setting": "3.47 kPa", "result": "186.13 ± 1.7", "unit": "°C"}
    ]},
    {"smiles": "CCCCCCCCCCCCCCCC", "note": "[hexadecane]", "values": [
      {"measurement": "Boiling temperature at pressure P", "setting": "3.47 kPa", "result": "170.91 ± 2.5", "unit": "°C"},
      {"measurement": "Boiling temperature at pressure P", "setting": "10.37 kPa", "result": "200.90 ± 1.7", "unit": "°C"},
      {"measurement": "Boiling temperature at pressure P", "setting": "15.17 kPa", "result": "213.66 ± 1.6", "unit": "°C"},
      {"measurement": "Boiling temperature at pressure P", "setting": "18.66 kPa", "result": "220.5 ± 2.6", "unit": "°C"},
      {"measurement": "Boiling temperature at pressure P", "setting": "22.39 kPa", "result": "223.27 ± 2.3", "unit": "°C"}
    ]},
    {"smiles": "CCCCCCCCCCCCCCCCCC", "note": "[octadecane]", "values": [
      {"measurement": "Boiling temperature at pressure P", "setting": "3.47 kPa", "result": "196.81 ± 1.9", "unit": "°C"}
    ]},
    {"smiles": "CCCCCCCCCCCCCCCCCCO", "note": "[1-octadecanol]", "values": [
      {"measurement": "Boiling temperature at pressure P", "setting": "3.47 kPa", "result": "225.89 ± 1.8", "unit": "°C"}
    ]},
    {"smiles": "CCCCCCCC(=O)OCC(O)CO", "note": "(stereo unspecified) [2,3-dihydroxypropyl octanoate]", "values": [
      {"measurement": "Boiling temperature at pressure P", "setting": "3.47 kPa", "result": "211.90 ± 1.9", "unit": "°C"}
    ]},
    {"smiles": "CCCCCCCC(=O)O", "note": "[octanoic acid]", "values": [
      {"measurement": "Boiling temperature at pressure P", "setting": "3.47 kPa", "result": "144.04 ± 1.9", "unit": "°C"}
    ]}
  ]
}
